Reference: patent US20250011738A1, “HEAT TOLERANT ALKALINE PHOSPHATASE” (BiomEdit, LLC, priority 2021, published 2025)
Read-outs that look alike come from different tables or passages of the source.

Molecular target: T1, Paenibacillus lentus alkaline phosphatase AP1 heat tolerant mutant APHT (designated "HT"), 16 amino acid changes from AP1, SEQ ID NO: 1 (Paenibacillus lentus, UniProt A0A3Q8S6G4, A163G/A247P/A302M/D102S/D304A/F110I/G290A/K198N/K66I/L136H/S105A/S168N/S338G/S535E/T223N/V100I/Y117N)
T1 sequence (A0A3Q8S6G4 34-572 K66I/V100I/D102S/S105A/F110I/Y117N/L136H/A163G/S168N/K198N/T223N/A247P/G290A/A302M/D304A/S338G/S535E): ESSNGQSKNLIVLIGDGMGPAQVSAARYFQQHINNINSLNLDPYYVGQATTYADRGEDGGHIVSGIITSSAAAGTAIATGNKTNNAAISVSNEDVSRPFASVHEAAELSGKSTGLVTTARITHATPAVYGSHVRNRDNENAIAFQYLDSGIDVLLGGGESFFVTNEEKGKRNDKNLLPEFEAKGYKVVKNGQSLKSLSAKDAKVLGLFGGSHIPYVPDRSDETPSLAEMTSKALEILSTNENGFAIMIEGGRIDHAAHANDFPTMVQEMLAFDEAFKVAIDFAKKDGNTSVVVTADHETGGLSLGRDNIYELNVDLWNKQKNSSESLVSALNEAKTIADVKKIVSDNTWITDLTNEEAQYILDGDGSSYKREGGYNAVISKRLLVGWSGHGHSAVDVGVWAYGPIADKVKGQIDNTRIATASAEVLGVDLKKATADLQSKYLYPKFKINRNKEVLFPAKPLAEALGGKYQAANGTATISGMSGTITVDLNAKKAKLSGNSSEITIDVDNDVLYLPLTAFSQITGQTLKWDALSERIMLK
Assay type: biochemical
Protocol: FIG. 7 presents effect of pH on (A)Vmax (IU/mg) and (B) KM (μM) activity of AP1 (designated “Native”) and APHT (designated “HT”). Assays were performed at 40° C. with p-NPP as substrate in the concentration range 0-5 mM. The enzyme concentration was 2.5 μg/mL for the pH 8 and 0.4 mg/mL for pH 9-13).
FIG. 8 presents effect of pH on (A)Vmax (IU/mg) and (B) KM (μM) activity of AP1 (designated “Native”) and APHT (designated “HT”). Assays were performed at 50° C. with p-NPP as substrate in the concentration range 0-5 mM. The enzyme concentration was 2.5 μg/mL for the pH 8 and 0.4 mg/mL for pH 9-13).
To further improve the thermal stability, a set of synthetic alkaline phosphatase genes where each amino acid was mutated to other possibilities one at a time was constructed and evaluated. […] In FIG. 5A, the AP1 with a serine mutation is designated as “AP Native” and is depicted in sequence with a leader sequence […] (SEQ ID NO:13). The AP1 with leader sequence […] is provided in SEQ ID NO:14). The APHT polypeptide with leader sequence […] is provided in SEQ ID NO:15). In FIG. 5B, the AP1 with a serine mutation and without any leader sequence or leader peptide amino acids (SEQ ID NO:4) is aligned and compared with the APHT without any leader sequence or leader peptide amino acids (SEQ ID NO:1). The 16 amino acid changes in APHT are evident. The APHT amino acid sequence (excluding and without any leader sequence and starting with amino acids ESSN) is 97% identical to the sequence of AP1 (excluding and without any leader sequence and starting with amino acids ESSN).
The APHT sequence (SEQ ID NO: 1) is provided below with the amino acid mutations versus the AP1 sequence underlined and in bold.
• 1 M DEA Buffer pH 10. Dissolve 10.5 g of diethanolamine in to 100 ml of water. The pH adjust with 1 M hydrochloric acid or 1 M NaOH. Filter sterilize and store at 4 C. • 0.5 M Tris Base Buffer pH 10 and 8. Dissolve 6.06 g of Tris in to 100 ml of water. The pH adjust with 1 M hydrochloric acid or 1 M NaOH. Filter sterilize and store at 4 C. • 0.1 M Borate Buffer pH 11 and 12. Dissolve 0.62 g Boric acid, 0.44 g NaCl and Sodium tetraborate 0.95 g in 100 ml H2O. The pH adjust with 1 M hydrochloric acid or 1 M NaOH. Filter sterilize and store at 4 C. • 1 M KCl/NaOH Buffer pH 13. Dissolve 7.4 g KCl in 100 ml water. The pH adjust with 1 M NaOH. Filter sterilize and store at 4 C. • 1 M MgCl2, 23.8 g MgCl2 anhydrous in […] water. Filter sterilize and store at 4 C 3. Activity Assay: p-NPP Substrate
Reactions were carried out at 40° C. using 50 mM Tris buffer pH 7 with 50 mM MgCl2 and at 50° C. using 50 mM DEA buffer pH 10 with 50 mM MgCl2. Enzyme was thawed, aliquoted in 500 μL vials and freeze at −80° C. For 100 μL volume of reaction, components were mixed in 96-well microplate (Fisher 12565501) following the order in TABLE 1. Every reaction condition was done by triplicated at least.
After the adding enzyme, the absorption of product was followed at 405 nm over 5 min in a M5 plate reader with intervals of 20 s. Initial rate was determined for each curve and product formed calculated using the extinction coefficient of 18.5 mM^−1·cm^−1 and a calculated pathlength of 0.5 cm. Initial rates where fitted to Michalis Menten model built in the Kaleidagraph software.
pH effect on enzyme activity was tested at 40 and 50° C. in the corresponding buffer with 50 mM MgCl2 using p-NPP as substrate in the concentration range 0-5.0 mM. The reaction started with the addition of enzyme (2.5 μg/mL for pH 8 and 0.4 μg/mL for pH 9-13) and the absorption at 405 nm was followed for 5 min. Every reaction condition was done by triplicated at least.

## O=[N+]([O-])c1ccc(OP(=O)(O)O)cc1 [p-NPP, p-nitrophenylphosphate]
40° C., Borate pH 11
  Km: 12200 µM
40° C., Borate pH 12
  Km: 498 µM
40° C., DEA pH 10
  Km: 2540 µM
40° C., Tris pH 8
  Km: 46 µM
40° C., Tris pH 9
  Km: 992 µM
50° C., Borate pH 11
  Km: 12200 µM
50° C., Borate pH 12
  Km: 1080 µM
50° C., DEA pH 10
  Km: 2540 µM
50° C., KCl/NaOH (pH printed 204; Table 2: 13.0)
  Km: 498 µM
50° C., Tris pH 8
  Km: 45 µM
50° C., Tris pH 9
  Km: 992 µM
